According to ChEMBL document CHEMBL2021839, “Pyridine alkaloids from Senna multijuga as acetylcholinesterase inhibitors” (J Nat Prod, 2012):

Legend:
[1] = target: Acetylcholinesterase (Electrophorus electricus) (UniProt O42275); assay: Inhibition of electric eel AChE assessed as minimum concentration required to inhibit enzyme activity after 20 mins by TLC bioautographic assay
[2] = target: Acetylcholinesterase (Electrophorus electricus) (UniProt O42275); assay: Inhibition of electric eel AChE using acetylthiocholine as substrate at 350 uM by Ellman's method

Chain of Acetylcholinesterase (Electrophorus electricus) (O42275 24-633 limits assumed): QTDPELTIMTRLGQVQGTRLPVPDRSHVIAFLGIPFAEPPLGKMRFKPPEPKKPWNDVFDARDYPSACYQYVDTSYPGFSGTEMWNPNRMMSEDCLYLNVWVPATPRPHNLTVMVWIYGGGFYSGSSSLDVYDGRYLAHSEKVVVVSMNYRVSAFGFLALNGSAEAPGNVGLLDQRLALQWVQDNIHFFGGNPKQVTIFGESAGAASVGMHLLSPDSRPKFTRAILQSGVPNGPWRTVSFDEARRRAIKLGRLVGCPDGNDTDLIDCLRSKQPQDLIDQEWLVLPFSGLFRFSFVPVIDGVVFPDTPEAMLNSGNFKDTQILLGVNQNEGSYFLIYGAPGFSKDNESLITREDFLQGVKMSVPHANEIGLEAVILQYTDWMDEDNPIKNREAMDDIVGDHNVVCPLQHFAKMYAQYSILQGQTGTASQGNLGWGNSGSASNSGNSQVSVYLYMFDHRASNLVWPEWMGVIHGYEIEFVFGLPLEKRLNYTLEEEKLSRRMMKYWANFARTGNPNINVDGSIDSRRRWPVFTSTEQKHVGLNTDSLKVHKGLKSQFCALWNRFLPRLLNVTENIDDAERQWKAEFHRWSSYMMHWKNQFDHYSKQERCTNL

| SMILES | MIC [1] [µg] | inhibition [2] [%] |
| --- | --- | --- |
| CCCCC(O)CCCCCCCc1ccc(O)c(C)n1 (racemic) | 1.5 | 19 |
| CNC(=O)Oc1ccc2c(c1)[C@]1(C)CCN(C)[C@@H]1N2C | 0.1 | 94 |
| Cc1nc(CCCCCCCC(O)CCCCO)ccc1O (racemic) | 6 | 28 |
| Cc1nc(CCCCCCC(O)CCCCCO)ccc1O (racemic) | 1.5 | 51 |
| CCCCCC(O)CCCCCCc1ccc(O)c(C)n1 (racemic) | 0.8 | 52 |
| COC(=O)CCCc1ccc(O)c(C)n1 | 3 | 40 |
